Measurements as given in US20190352276A1, “INHIBITORS OF BRUTON'S TYROSINE KINASE” (Joint Stock Company "Biocad", priority 2016, published 2019).
Read-outs that look alike come from different tables or passages of the source.

How the values were obtained:
[1] = Permeability through the monolayer of Caco-2 cells; format: in vitro ADME; conditions: human; for Papp A→B at 2 h, 10 μM / Papp B→A at 2 h, 10 μM: 2 h at 37° C.; for efflux ratio at 2 h, 10 μM: read-out: efflux (Papp B-A/Papp A-B)
Procedure, shortened: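 Bidirectional transport measured over 7200 s with 10 μM compound, using an apical buffer at pH 6.5 and a basolateral Hanks/HEPES/glucose buffer at pH 7.4 containing 1% BSA. Monolayers were 21-day Caco-2 cultures verified with Lucifer Yellow. Chamber concentrations quantified chromatographically to derive Papp in both directions and their B-A/A-B efflux ratio.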

[2] = target: T1, recombinant Btk kinase enzyme (Homo sapiens, UniProt Q06187); test: In vitro inhibition of Btk kinase activity (ADP-Glo); format: biochemical
T1 construct: purchased SignalChem B10-10H
Protocol: To assess Btk kinase activity described herein, SignalChem kinase system was used. Btk kinase activity was determined in the reaction between recombinant Btk kinase enzyme (SignalChem #B10-10H) and Poly (4:1 Glu, Tyr) peptide substrate in the presence of the inhibitor.
Staurosporine (Abcam Biochemicals, ab146588) was used as a reference inhibitor and 0.1% DMSO in the reaction buffer—as a negative control. The solution of 0.5 mg/mL peptide substrate and 50 &M ATP in the same buffer were added; the solution was incubated for 180 minutes at 37° C. To detect the amount of ATP taken up during the kinase reaction, the equivalent amount of ADP (from the ADP Glo Detection Kit (Promega, #V9101)) was used according to the protocol. The reaction mixture was equilibrated to room temperature. 25 µL of ADP-Glo Reagent were added into each well; the plate was incubated for 40 minutes. 50 μL of Kinase Detection Reagent were added; the plate was incubated for 30 minutes. The luminescence was measured with multimode plate reader (Tecan Infinite M200Pro, Switzerland). IC50 values were calculated using Magellan 7.2 software (Tecan, Switzerland) approximating experimental points by four-parameter logistic model with the optimization by Levenberg-Marquardt.

[3] = system: Mino (mantle cell lymphoma); test: Antiproliferative activity, Mino cells (Alamar Blue); format: cell-based; conditions: Homo sapiens
Procedure, shortened: (§1)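 Readout: Alamar Blue fluorescence (540 nm excitation, 590 nm emission) after 14-16 h reagent incubation, following 72 h compound exposure at 37 °C. About 3*10^4 cells/well were grown in 10% FBS RPMI-1640. IC50 values were fitted by a four-parameter logistic model.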

[4] = system: Z-138 (mantle cell lymphoma); test: Antiproliferative activity, Z-138 cells (Alamar Blue); format: cell-based; conditions: Homo sapiens
Procedure, shortened: as §1

[5] = General cytotoxicity on HepG2 cells (CC50; therapeutic index CC50 HepG2/IC50 Mino); format: cell-based; conditions: human, HepG2 cells (hepatocellular carcinoma), 72 hours, Alamar Blue
Procedure, shortened: (§2)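 Alamar Blue viability after 72 h exposure to compounds (final 200 μM–4 μM) gave CC50; HepG2 plated 2*10^4/well in DMEM 24 h beforehand. Therapeutic index expressed as ratio of HepG2 CC50 to Mino antiproliferative IC50.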

[6] = system: HepG2 cells (hepatocellular carcinoma); test: as above; format: cell-based; conditions: therapeutic index
Procedure, shortened: as §2

[7] = system: DOHH2 (follicular lymphoma); test: Antiproliferative activity, DOHH2 cells (Alamar Blue); format: cell-based; conditions: Homo sapiens, DOHH-2, Table 10, 72 h, average of several tests
Protocol: Antiproliferative activity of BTK inhibitors was measured in cell-based bioassay on B-cells cultures: Mino (mantle cell lymphoma, ATCC® CRL-3000™), Z-138 (mantle cell lymphoma, ATCC® CRL-3001™) and DOHH2 (follicular lymphoma, Creative Bioarray CSC-C0219) using cell viability reagent Alamar Blue (Invitrogen, #DAL 1100). Cells were cultured in 10% FB S-supplemented (HyClone, #SH3008803/Gibco, #16140-071) RPMI-1640 (PanEco, #S330p) for at least 1 passage after thawing, washed with PBS and passaged in 96-well culture plates (Corning, #3599) with growth medium with 10% FBS (HyClone, #SH3008803/Gibco, #16140-071) and antibiotic (50 μg/ml of gentamicin (Biolot, #1.3.16))≈3*10^4 cells in 50 μl of medium per well.
The compounds were dissolved in DMSO and diluted with the assay medium to final concentrations ranging from […]. 150 μl of each diluted compound were then added to each well (final concentration of DMSO was less than 1%) and incubated at 37° C. in an incubator under 5% of CO2 for 72 h. After incubation, 20 μl of Alamar Blue reagent (Invitrogen, #DAL1100) were added to each well. The plates were shaked on an orbital shaker (Biosan, Latvia) and then incubated for 14-16 hours at 37° C. in the incubator.
The number of living cells were estimated, measuring the fluorescence signal at the excitation wavelength (REx) of 540 nm and the emission wavelength (λEm) of 590 nm on a microplate reader (Tecan Infinite M200Pro, Switzerland).
For each compound, IC50 was calculated using Magellan 7.2 software (Tecan, Switzerland) approximating experimental points by four-parameter logistic model with the optimization by Levenberg-Marquardt.

[8] = Stability in human blood plasma; conditions: 10 μM in pooled human blood plasma, incubated 4 hours at 37° C.
[9] = Chemical stability in artificial gastric fluid (SGF without enzymes); conditions: 10 μM in SGF without enzymes, pH=1.4, 37° C.
[10] = Table 8, ADP-Glo, read-out: IC50 kinase BTK
[11] = Table 10, 72 h, average of several tests
[12] = Table 10, average of several tests

T1 sequence (Q06187 whole entry): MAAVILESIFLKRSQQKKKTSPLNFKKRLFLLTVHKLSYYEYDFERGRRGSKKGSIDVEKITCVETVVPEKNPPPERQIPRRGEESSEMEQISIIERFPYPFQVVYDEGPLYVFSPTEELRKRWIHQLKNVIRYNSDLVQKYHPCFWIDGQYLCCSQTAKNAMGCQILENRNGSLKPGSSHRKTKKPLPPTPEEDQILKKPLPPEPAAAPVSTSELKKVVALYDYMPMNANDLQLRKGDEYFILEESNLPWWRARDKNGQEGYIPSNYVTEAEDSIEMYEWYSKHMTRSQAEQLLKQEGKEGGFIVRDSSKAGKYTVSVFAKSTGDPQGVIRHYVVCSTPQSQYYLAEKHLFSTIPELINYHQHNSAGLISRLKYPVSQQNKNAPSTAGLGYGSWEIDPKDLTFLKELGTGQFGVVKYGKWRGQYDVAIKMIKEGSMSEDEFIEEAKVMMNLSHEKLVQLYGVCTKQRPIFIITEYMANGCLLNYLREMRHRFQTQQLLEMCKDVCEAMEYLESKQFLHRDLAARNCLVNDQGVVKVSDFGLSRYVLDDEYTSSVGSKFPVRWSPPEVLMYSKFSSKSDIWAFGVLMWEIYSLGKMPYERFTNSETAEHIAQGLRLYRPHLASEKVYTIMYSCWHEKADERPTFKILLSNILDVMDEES

Structure (SMILES) | IC50 [2, 10] [µM] | IC50 [3, 11] [µM] | IC50 [4, 11] [µM] | IC50 [7] [µM] | CC50 at 72 h [5, 12] [µM] | CC50 (HepG2)/IC50 (Mino) ([6]; Table 10) | Amount of substance in the sample in % (chemical stability) [9] [%] | further results
C=CC(=O)N1CCC[C@@H](n2nc(-c3ccc(Oc4ccncc4)cc3)c3cncc(C#N)c32)C1 [BCD-BTK-123, (R)-1-(1-acryloylpiperidin-3-yl)-3-(4(pyridin-4-yloxy)phenyl)-1H-pyrazolo[4,3-c]pyridin-7-carbonitrile] | – | – | – | – | – | – | – | Papp A→B at 2 h, 10 μM [1]: 14.8 ×10⁻⁶ cm/s; Papp B→A at 2 h, 10 μM [1]: 7.4 ×10⁻⁶ cm/s; efflux ratio at 2 h, 10 μM [1]: 0.5; IC50 ([2]; Table 11, BTK kinase, read-out: IC50 kinase): 1.51 µM; IC50 ([3]; Table 11, 72 h): 13.2 µM; IC50 ([4]; Table 11, 72 h): 28 µM; CC50 at 72 h ([5]; Table 11): 50.4 µM; CC50 (HepG2)/IC50 (Mino) ([6]; Table 11): 3.81
C=CC(=O)N1CCC[C@@H](n2nc(-c3ccc(C(=O)Nc4cc(C(F)(F)CC)ccn4)cc3)c3cncc(Cl)c32)C1 [BCD-BTK-215, (R)-4-(1-(1-acryloylpiperidin-3-yl)-7-chloro-1H-pyrazolo[4,3-c]pyridin-3-yl)-N-(4-(1,1-difluoropropyl)pyridin-2-yl)benzamide] | 0.0358 | 2.93 | 8 | > 100 | > 100 | >34.11 | – | –
C=CC(=O)N1CCC[C@@H](n2nc(-c3ccc(C(=O)Nc4ccccn4)cc3)c3cncc(C#N)c32)C1 [BCD-BTK-228, (R)-4-(1-(1-acryloylpiperidin-3-yl)-7-cyano-1H-pyrazolo[4,3-c]pyridin-3-yl)-N-(pyridin-2-yl)benzamide] | 0.0389 | – | – | – | – | – | 99.9 | Papp A→B at 2 h, 10 μM [1]: 8 ×10⁻⁶ cm/s; Papp B→A at 2 h, 10 μM [1]: 1.4 ×10⁻⁶ cm/s; efflux ratio at 2 h, 10 μM [1]: 0.17; Amount of substance in the sample, % (stability in human blood plasma) [8]: 85.2%
C=CC(=O)N1CCC[C@@H](n2nc(-c3ccc(C(=O)Nc4ncccc4F)cc3)c3c(N)ncc(Cl)c32)C1 [BCD-BTK-233, (R)-4-(1-(1-acryloylpiperidin-3-yl)-4-amino-7-chloro-1H-pyrazolo[4,3-c]pyridin-3-yl)-N-(3-fluoropyridin-2-yl)benzamide] | 0.0115 | 5.44 | 4.11 | 1.11 | 18.4 | 3.39 | 100 | –
C=CC(=O)N1CCC[C@@H](n2nc(-c3ccc(C(=O)Nc4ncccc4F)cc3)c3cncc(C#N)c32)C1 [BCD-BTK-235, 4-{7-cyano-1-[(3R)-1-(prop-2-enoyl)piperidin-3-yl]-1H-pyrazolo[4,3-c]pyridin-3-yl}-N-(3-fluoropyridin-2-yl)benzamide] | 0.0139 | 18.6 | > 100 | > 100 | > 100 | >5.37 | 100 | –
C=CC(=O)N1CCC[C@@H](n2nc(-c3ccc(C(=O)Nc4cc(C(F)(F)CCC)ccn4)cc3)c3cncc(F)c32)C1 [BCD-BTK-247, (R)-4-(1-(1-acryloylpiperidin-3-yl)-7-fluoro-1H-pyrazolo[4,3-c]pyridin-3-yl)-N-(4-(1,1-difluorobutyl)pyridin-2-yl)benzamide] | 0.0147 | 5.81 | > 50 | > 100 | > 100 | >17.21 | – | –
C=CC(=O)N1CCC[C@@H](n2nc(-c3ccc(C(=O)Nc4cccc(F)n4)cc3)c3c(N)ncc(Cl)c32)C1 [BCD-BTK-250, (R)-4-(1-(1-acryloylpiperidin-3-yl)-4-amino-7-chloro-1H-pyrazolo[4,3-c]pyridin-3-yl)-N-(6-fluoropyridin-2-yl)benzamide] | 0.0153 | 2.38 | 3.26 | – | 12.2 | 5.13 | – | –
C=CC(=O)N1CCC[C@@H](n2nc(-c3ccc(C(=O)Nc4cc(C(F)(F)CCC)ccn4)cc3)c3c(N)ncc(Cl)c32)C1 [BCD-BTK-254, (R)-4-(1-(1-acryloylpiperidin-3-yl)-4-amino-7-chloro-1H-pyrazolo[4,3-c]pyridin-3-yl)-N-(4-(1,1-difluorobutyl)pyridin-2-yl)benzamide] | 0.0112 | 2.95 | 6.65 | – | 12.3 | 4.18 | – | –
C=CC(=O)N1CC[C@H](n2nc(-c3ccc(C(=O)Nc4ccccn4)cc3)c3cncc(Cl)c32)C1 [BCD-BTK-273, (S)-4-(1-(1-acryloylpyrrolidin-3-yl)-7-chloro-1H-pyrazolo[4,3-c]pyridin-3-yl)-N-(pyridin-2-yl)benzamide] | 0.0261 | – | – | – | – | – | 100 | –
C=CC(=O)N1CCC[C@H](Cn2nc(-c3ccc(C(=O)Nc4ccccn4)cc3)c3cncc(Cl)c32)C1 [BCD-BTK-290, (S)-4-(1-((1-acryloylpiperidin-3-yl)methyl)-7-chloro-1H-pyrazolo[4,3-c]pyridin-3-yl)-N-(pyridin-2-yl)benzamide] | 0.0196 | – | – | – | – | – | 100 | Amount of substance in the sample, % (stability in human blood plasma) [8]: 100.0%
CC#CC(=O)N1CCC[C@@H](n2nc(-c3ccc(C(=O)Nc4ccccn4)cc3)c3c(N)ncc(Cl)c32)C1 [BCD-BTK-295, (R)-4-(4-amino-1-(1-(but-2-ynoyl)piperidin-3-yl)-7-chloro-1H-pyrazolo[4,3-c]pyridin-3-yl)-N-(pyridin-2-yl)benzamide] | 0.0652 | 2 | 1.19 | 1.94 | 32.5 | 16.23 | – | –
